From patent US9902761B2, “Polypeptides, nucleic acids and uses thereof” (AGENCY FOR SCIENCE, TECHNOLOGY AND RESEARCH, priority 2013, dated 2018) come the findings set out here.

Series [1] deals with T1, zebrafish aplnrb (Danio rerio, UniProt A0T2N3).
T1 sequence (A0T2N3 1-359): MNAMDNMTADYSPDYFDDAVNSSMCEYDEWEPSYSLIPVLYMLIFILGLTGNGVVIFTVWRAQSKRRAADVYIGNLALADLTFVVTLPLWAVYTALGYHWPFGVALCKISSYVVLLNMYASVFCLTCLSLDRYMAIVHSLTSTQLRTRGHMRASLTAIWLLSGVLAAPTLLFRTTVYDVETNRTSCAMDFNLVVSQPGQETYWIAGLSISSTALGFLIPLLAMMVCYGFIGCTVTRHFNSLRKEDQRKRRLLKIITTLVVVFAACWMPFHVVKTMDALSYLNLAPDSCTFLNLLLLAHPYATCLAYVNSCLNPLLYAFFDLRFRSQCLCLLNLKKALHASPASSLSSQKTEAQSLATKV
Description: AP-ELA binding assay, 293T cells overexpressing receptor. To be noted: HEK293T overexpression.

Series [2] has as its system hESCs. The experiment in a line: AP-ELA cell surface binding assay on hESCs. Further details: species or system human. To be noted: undifferentiated hESCs.
The target of series [3] is T2, aplnrb^grinch (W90L) (Danio rerio, UniProt A0T2N3, W90L).
T2 sequence (A0T2N3 1-359 W90L): T1 sequence (A0T2N3 1-359) with W90L
The experiment in a line: AP-ELA binding assay, 293T cells overexpressing receptor. To be noted: 293T overexpression.

Series [4] addresses T3, zebrafish aplnra (Danio rerio, UniProt Q7SZP9).
T3 sequence (Q7SZP9 1-362): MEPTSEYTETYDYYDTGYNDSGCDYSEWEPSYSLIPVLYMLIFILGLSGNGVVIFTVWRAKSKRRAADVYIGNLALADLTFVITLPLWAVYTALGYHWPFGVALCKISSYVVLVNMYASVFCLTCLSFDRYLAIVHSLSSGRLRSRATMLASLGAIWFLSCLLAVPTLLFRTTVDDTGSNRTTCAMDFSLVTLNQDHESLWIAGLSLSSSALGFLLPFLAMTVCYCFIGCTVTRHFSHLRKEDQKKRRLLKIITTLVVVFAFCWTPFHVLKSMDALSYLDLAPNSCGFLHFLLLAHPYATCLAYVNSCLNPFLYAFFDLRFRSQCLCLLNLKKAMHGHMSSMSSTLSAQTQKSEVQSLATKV
Described as above. To be noted: HEK293T overexpression.

For series [5], the system named is hESCs. In kind it is cell-based, human. To be noted: data not shown.
The test system of series [6] is hESCs. The experiment in a line: survival of hESCs after single-cell dissociation (anoikis). The format is cell-based, human. To be noted: with or without Y-27632. Here is the method: (§1) hESCs were dissociated into single cells using Accutase (Stem Cell Technologies) and plated in the presence of 10 μM Y-27632 (ROCK inhibitor) for 12 hours (Watanabe et al., 2007).

Series [7] has as its system hESCs. The experiment in a line: qPCR of mesendodermal markers in hESCs. The format is cell-based, human. Here is the method: After the indicated time periods, embryoid bodies were harvested and RNA extracted using RNeasy kit ([…]). qPCR reactions were carried out using either Universal FastSlart SYBR Green Mastermix (Roche) or using the Universal Probe Library system (Roche) in tandem with Taqman Fast Mastermix (Invitrogen). Primer sequences can be found in Table E1.
In general terms: Real-time PCR tracks product formation cycle by cycle.

Series [8] has as its system hESCs. Description: stress-induced apoptosis of hESCs by ActinomycinD. The format is cell-based, human.
For series [9], the system named is hESCs. The experiment in a line: xCELLigence real time growth assay, cell counts and colony size of hESCs. The format is cell-based, human. Here is the method:
Feeder-free hESCs were cultured in clumps in mTSER1 (Stem Cell Technologies) on Matrigel (BD 354277).
as §1
For xCELLigence real time growth assays, 4000 cells were plated per well of an E-plate (ACEA Biosciences) with media changes every 48 hours.
Recombinant ELA was added at 2.5 uM (or 10 μg/ml). Cell cycle studies were performed with Click-iT EDU staining kit (Invitrogen) and by performing a double thymidine block (2.5 mM thymidine; 16 hour block, 8 hour release, 16 hour block) followed by DAPI staining for DNA content at the indicated times following release.

In series [10] the test system is hESCs. Description: protein synthesis by incorporation of fluorescently-labeled amino acids. In kind it is cell-based, human.
In series [11] the test system is hESCs. Description: directed endoderm differentiation of hESCs, SOX17+ cell count. In kind it is cell-based, human. How it is done: Shef4TetR5-shELA and Shef4TetR5-shβ2M cells were cultured in the presence (shELA and shβ2M respectively) or absence (Control) of 20 ng/ml doxycycline for 1 passage (4 days) and dissociated with Accutase. […] 24 hours later, the media was changed to Endo differentiation media 1 [RPMI 1640 (Gibco), 1× B-27 supplement (Invitrogen), 50 ng/ml of Activin A (R&D Systems), 25 ng/ml BMP4 (R&D Systems) and 50 ng/ml bFGF (Invitrogen)] for 3 days. On day 3, the media was changed to Endo differentiation media 2 (RPMI 1640, B27, 50 ng/ml Activin) for 2 more days of culture. Rescue experiments were performed by adding 2.5 uM of ELA peptide to Shef4TetR5-shELA concurrently with doxycycline up to day 3, when the ELA peptide is no longer necessary as judged by downregulation of endogenous ELA.
On day 5, cells were fixed with 4% paraformaldehyde and stained with α SOX17 (AF1924, R&D Systems) and DAPI. For each well, three different randomly selected fields were imaged and the number of nuclei staining positive of SOXI 7 and DAPI were counted using a custom macro in ImageJ. A minimum of two wells per condition was used for each experiment, and a minimum of two independent experiments were performed to generate the results.

Series [12] can be described thus: teratoma analysis after subcutaneous injection of hESCs. To be noted: 10 million cells subcutaneously, day 60. In kind it is in vivo, SCID mice. Here is the method: Shef4TetR5-shELA cells were cultured in the presence (shELA) or absence (Control) of 20 ng/ml doxycycline for 3 passages (4 days/passage). Cells were harvested with Accutase (Stemcell Technologies) and resuspended in 1 part Matrigel to 2 parts mTSERL. 10 million cells in 200 μl were injected subcutaneously into the right hind paunches of SCID mice. shELA-injected mice were fed doxycycline (20 μg/ml) for 3 weeks following injection. Mice were sacrificed 60 days post-injection for tumor analysis.

In series [13] the test system is hESCs. The experiment in a line: stress-induced apoptosis of hESCs by ionizing radiation. In kind it is cell-based, human.
The test system of series [14] is hESCs. The experiment in a line: pluripotency markers and colony morphology of knockdown hESCs. In kind it is cell-based, human. To be noted: prolonged depletion. Here is the method:
To generate stable inducible knockdown of ELA in hESCs, the sequence […] (SEQ ID NO: 132) targeting the 3′UTR of ELA was cloned into pSUPERIOR (Oliogoengine) and nulcleofected (Lonza) into Shef4TetR5 hESCs (Zafarana et al., 2009). Neomycin-resistant cells were clonally expanded and assayed for doxycycline (20 ng/ml)-inducible knockdown. Data from one representative clone (ShefTetR5 shELA) are shown in this paper. Shef4TetR5 shβ2M were derived as previously described (Zafarana et al., 2009). Unless otherwise stated, ELA knockdown was induced on Day −4 with 20 ng/ml doxycycline to generate shELA cells.

The test system of series [15] is hESCs. Description: stress-induced apoptosis of hESCs by ActinomycinD. The format is cell-based, human. Here is the method: To induce apoptosis, hESCs were treated with the indicated doses of ActinomycinD (Sigma) or ionizing radiation followed by Aqueous One Cell Titer (Promega) or CASPASE GLO3/7 (Promega) assays 12 hours post-treatment.
The source holds these as a separate data set.

Series [16] concerns ELA processing and secretion. The experiment in a line: Xenopus secretion assay of human ELA. In kind it is cell-based, Xenopus laevis. To be noted: increasing amounts of inhibitor. How it is done:
ZFNs were purchased from Sigma-Aldrich. […] of mRNAs encoding the ZFN pair were injected into 1-cell stage embryos. ZFN binding sites within exon 1 are as follows: 5′_[…]_3′ (SEQ ID NO: 133) and 5′_[…] 3′ (SEQ 1D NO: 134). Sequencing primers flanking the mutation sites are: forward 5′_[…]_3′ (SEQ ID NO: 135), reverse 5′_[…] 3′ (SEQ ID NO: 136). For ela overexpression, 200 pg of SP6-transcribed zebrafish ela capped mRNA (Applied Biosystems) was injected into 1-cell stage zebrafish embryos. Translation blocking MOs used for aplnra and aplnrb have been described previously (Scott et al., 2007; Zeng et al., 2007) and were purchased from Gene tools (Oregon, USA). Embryos were injected at 1-cell stage with a combination of 1 ng of aplnra MO and 0.5 ng of apinrb MO (Zeng et al., 2007). Information on probes used for q-PCR and WISH can be found in Tables E1 and E2. Zebrafish embryos at 100% epiboly were dechorionated and processed for western blotting as previously described (Link et al., 2006). For the Xenopus secretion assay, 16 ng of SP6-transcribed human ELA capped mRNA (Applied Biosystems) was injected into each cell of 4-cell stage embryos. At stage 8, embryos were dechorionated and dissociated in CMFM medium with 5 mM EDTA. […]

Substitutions are numbered along the chain they refer to.

In the case of “AP-ELA: mature C-terminal 32-mer of ELA cloned in frame with alkaline phosphatase, secreted from 293T cells”, the “cell-surface binding of AP-ELA to aplnrb” value in [1] was “sufficient to afford cell-surface binding”. Also, in series [2], the “binding of AP-ELA to hESCs” value was “readily bind”. Besides, the “binding of AP-ELA to aplnrb^grinch” value in series [3] is listed as “unable to bind AP-ELA”. In addition, the “cell-surface binding of AP-ELA to aplnra” value in series [4] is “sufficient to afford cell-surface binding”.

Take APELIN-13: the “effect on hESCs” value in series [5] is “no effect on hESCs”.

In the case of `C[C@@H](N)[C@H]1CC[C@H](C(=O)Nc2ccncc2)CC1` [ROCK inhibitor, Y-27632, reference compound], the “survival following dissociation (anoikis)” value in series [6] is “protects against anoikis”.

“GTGATTCTCGTGCCTCAAC (expressed or natural sequence) [shELA, doxycycline-inducible shRNA targeting the 3′UTR of ELA in Shef4TetR5 hESCs]”: the “expression of mesendodermal genes GATA6, GATA4, FOXA2, EOMES and BRA” value in series [7] is listed as “conversely downregulated”. For the same compound, the “levels of MCL-1” value in series [8] is “lower levels”. Also, in [8] (mitochondria versus cytoplasm), the BAX localisation result was “higher levels of BAX in the mitochondria”. In [9] (real-time cell index, compared to control and shβ2M hESCs), the “growth rates of knockdown hESCs seeded as single cells” value is recorded as “markedly reduced growth rates”. Also, in [9] (relative to shβ2M hESCs), the “colony size of knockdown hESCs” value is “less than half the size”. The protein synthesis entry in series [10] was “reduced protein synthesis”. Moreover, the “survival following dissociation (anoikis)” value in series [6] is recorded as “do not survive single-cell dissociation”. The “reduction over control in the number of SOX17+ cells” value in series [11] (5 days directed differentiation, FIG. 6F) stood at 45%. Also, in series [11] (directed differentiation, control, shELA and shβ2M, FIG. 13C), the “reduction of SOX17 expression” value is reported as 35%. Further, the teratoma formation entry in series [12] was “did not form teratomas”. Besides, the “sensitivity to gamma irradiation relative to control” value in [13] was “twice as sensitive”. Besides, the “activated CASPASE 3 after irradiation” value in [13] (3 hours after 1 Gray of γ irradiation) is “higher levels of activated CASPASE 3”. Further, the “pluripotency markers POU5F1, NANOG, SSEA3 and TRA-1-60” value in [14] is listed as “downregulation of pluripotency markers”. In addition, in [15], the “activated CASPASE3/7 and CASPASE 9 after ActinomycinD” value is listed as “increased levels of activated CASPASE3/7”. Moreover, the “resistance or sensitivity to ActinomycinD” value in series [15] (nanomolar concentrations of ActinomycinD) is recorded as “more sensitive compared to control”.

As to `C[C@H]1CCC/C=C/[C@@H]2C[C@H](O)C[C@H]2[C@H](O)/C=C/C(=O)O1` [Brefeldin A], in series [16], the “ELA processing and secretion” value is “able to block ELA processing and secretion”.
